# In patent publication US20140350081A1, “INSECT G-COUPLED RECEPTORS USEFUL AS TARGETS FOR INSECTICIDES AND COMPOUNDS AND REAGENTS IDENTIFIED USING THE SAME” (priority 2011, published 2014):
# Counter-ions that a name gives are not always drawn.
# Biological target: AaDOP2 (Aedes aegypti, UniProt H6D5H2)
# Test: HTRF cAMP accumulation concentration response assay (Cisbio Dynamic 2)
# Format: cell-based
# Settings: not given
# AaDOP2, sequence (H6D5H2 entry or part of it): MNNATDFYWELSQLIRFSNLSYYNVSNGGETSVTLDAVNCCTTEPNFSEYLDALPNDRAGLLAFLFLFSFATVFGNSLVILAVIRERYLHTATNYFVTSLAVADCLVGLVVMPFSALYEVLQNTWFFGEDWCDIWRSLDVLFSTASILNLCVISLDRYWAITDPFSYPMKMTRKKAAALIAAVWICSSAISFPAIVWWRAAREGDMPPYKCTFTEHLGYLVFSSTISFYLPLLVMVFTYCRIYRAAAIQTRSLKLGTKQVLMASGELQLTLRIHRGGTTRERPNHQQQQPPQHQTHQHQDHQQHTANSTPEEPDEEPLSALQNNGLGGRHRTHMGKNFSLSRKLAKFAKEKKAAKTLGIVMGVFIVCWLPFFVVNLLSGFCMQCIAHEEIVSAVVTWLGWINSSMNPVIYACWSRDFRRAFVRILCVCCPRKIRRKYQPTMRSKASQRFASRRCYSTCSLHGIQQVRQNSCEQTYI
row,SMILES,IC50
1,"CCc1nn(CCCN2CCN(c3cccc(Cl)c3)CC2)c(=O)n1CCOc1ccccc1 [Nefazodone HCl, 2-[3-[4-(3-chlorophenyl)-1-piperazinyl]propyl]-5-ethyl-2,4-dihydro-4-(2-phenoxyethyl)-3H-1,2,4-triazol-3-one hydrochloride]",4880 nM
2,"CN1CCCC(n2nc(Cc3ccc(Cl)cc3)c3ccccc3c2=O)CC1 (stereo not shown) [Azelastine HCl, 4-[(4-chlorophenyl)methyl]-2-(1-methylazepan-4-yl)phthalazin-1-one hydrochloride]",47500 nM
3,"CC(=O)c1ccc2c(c1)OCO2 [ST092311, 5-acetyl-2H-benzo[d]1,3-dioxolene]",5820 nM

# Same assay, conditions: AaDOP2 expressing cells in the presence of dopamine; No Inhibition = <10% inhibition at 3 μM test compound
row,SMILES,"IC50 ± S.E.M. (nM), HTRF cAMP assay"
1,Cc1ccc(/N=C/N(C)/C=N/c2ccc(C)cc2C)c(C)c1 [Amitraz],No Inhibition^a
2,O=C1CC2(CCCC2)CC(=O)N1CCCCN1CCN(c2ncccn2)CC1 [Buspirone],No Inhibition^a

# Same assay, conditions: AaDOP2 expressing cells in the presence of dopamine; No Inhibition = <10% inhibition at 3 μM test compound; read-out: IC50 ± S.E.M. (nM), HTRF cAMP assay
row,SMILES,IC50
1,Cc1nc2sccn2c(=O)c1CCN1CCC(=C(c2ccccc2)c2ccc(F)cc2)CC1 [Compound R59-022],53 ± 13 nM
2,CCOC(=O)N1CCC(=C2c3ccc(Cl)cc3CCc3cccnc32)CC1 [Loratidine],18000 nM

# Same assay, conditions: Avg IC50 (μM), in vitro Concentration Response Curve assay, n = 2, relative to control antagonist Amitriptyline
row,SMILES,IC50
1,"COc1ccccc1OCCNCC(O)COc1cccc2[nH]c3ccccc3c12 (stereo not shown) [Carvedilol, 1-(9H-Carbazol-4-yloxy)-3-[[2-(2-methoxyphenoxy)ethyl]amino]-2-propanol]",8500 nM

# Same assay, conditions: in vitro Concentration Response Curve assay, n = 2, relative to control antagonist Amitriptyline; read-out: Avg IC50
row,IC50,SMILES
1,17600 nM,"COc1ccc2[nH]cc(CCNC(=O)C(=O)c3c(-c4ccccc4)n(C)c4ccccc34)c2c1 [ST077642, N-[2-(5-methoxyindol-3-yl)ethyl]-2-(1-methyl-2-phenylindol-3-yl)-2-oxoacetamide]"
2,4860 nM,"CCOC(=O)c1c(C)n(-c2ccccc2)c2cc(Br)c(OC)cc12 [ST002262, ethyl 6-bromo-5-methoxy-2-methyl-1-phenylindole-3-carboxylate]"
3,5510 nM,"O=[N+]([O-])C1=Cc2ccccc2OC1c1ccc2c(c1)OCO2 (stereo not shown) [ST038696, 5-(3-nitro-2H-chromen-2-yl)-2H-benzo[d]1,3-dioxolane]"
4,1650 nM,"CCOC(=O)C1=C(N)Oc2c(oc(CO)cc2=O)C1c1cc([N+](=O)[O-])ccc1Cl (stereo not shown) [ST071653, ethyl 2-amino-4-(2-chloro-5-nitrophenyl)-6-(hydroxymethyl)-8-oxo-4H-pyrano[3,2-b]pyran-3-carboxylate]"
5,1970 nM,"CN1CCc2c(c3ccccc3n2Cc2ccccc2)C1 [ST088437, 2-methyl-5-benzyl-1,2,3,4-tetrahydropyridino[4,3-b]indole]"
6,74200 nM,"N=C1SC(=Cc2cc3c(cc2Br)OCO3)C(=O)N1c1ccc(OC(F)(F)F)cc1 [ST052085, 5-[(6-bromo(2H-benzo[d]1,3-dioxolen-5-yl))methylene]-2-imino-3-[4-(trifluoromethoxy)phenyl]-1,3-thiazolidin-4-one]"
7,8860 nM,"Cc1ccccc1Nc1nc(Nc2ccccc2C)c2ccccc2n1 [ST027415, (2-methylphenyl){2-[(2-methylphenyl)amino]quinazolin-4-yl}amine]"
8,952 nM,"CC(C)(O)C#Cc1ccc2c3c(cccc13)C(=O)OC2=O [ST010134, 6-(3-hydroxy-3-methyl-but-1-ynyl)-benzo(de)isochromene-1,3-dione]"
9,8310 nM,"COc1ccc(C(=O)Nc2nc(-c3ccc4c(c3)OCCO4)cs2)cc1OC [ST075014, N-(4-(2H,3H-benzo[3,4-e]1,4-dioxin-6-yl)(1,3-thiazol-2-yl))(3,4-dimethoxyphenyl)carboxamide]"

# More lines, now with the values behind:
row,SMILES,IC50
1,"COc1ccc(Nc2cc(C)nc(Nc3ccc(NC(=O)CC(C)(C)C)cc3)n2)cc1 [Compound G869-0275, N-(4-((4-((4-methoxyphenyl)amino)-6-methylpyrimidin-2-yl)amino)phenyl)-3,3-dimethylbutanamide]",9020 nM
2,"CCN(CC)CCNc1nc(Nc2ccc(Cl)cc2)c2cnn(-c3ccccc3)c2n1 [Compound G932-0372, N4-(4-chlorophenyl)-N6-(2-(diethylamino)ethyl)-1-phenyl-1H-pyrazolo[3,4-d]pyrimidine-4,6-diamine]",5130 nM
3,"CCN1CCN(c2nc(Nc3cccc(F)c3)c3cnn(-c4ccccc4)c3n2)CC1 [Compound G932-0687, 6-(4-ethylpiperazin-1-yl)-N-(3-fluorophenyl)-1-phenyl-1H-pyrazolo[3,4-d]pyrimidin-4-amine]",769 nM
4,"CC1CCC(C(C)C)C(OC(=O)C(=O)c2ccccc2)C1 (stereo not shown) [ST070482, 5-methyl-2-(methylethyl)cyclohexyl 2-oxo-2-phenylacetate]",32400 nM
5,"Cc1cc(Nc2ccccc2)nc(Nc2ccc(NC(=O)C3CCCCC3)cc2)n1 [Compound G869-0105, N-(4-((4-methyl-6-(phenylamino)pyrimidin-2-yl)amino)phenyl)cyclohexanecarboxamide]",11600 nM
6,"CCN1CCN(c2nc(Nc3ccccc3)c3cnn(-c4ccccc4)c3n2)CC1 [Compound G932-0245, 6-(4-ethylpiperazin-1-yl)-N,1-diphenyl-1H-pyrazolo[3,4-d]pyrimidin-4-amine]",557 nM
7,"COc1ccc(Nc2cc(C)nc(Nc3ccc(NC(=O)C(C)(C)C)cc3)n2)cc1 [Compound G869-0273, N-(4-((4-((4-methoxyphenyl)amino)-6-methylpyrimidin-2-yl)amino)phenyl)pivalamide]",5090 nM
8,"CC(COc1ccccc1Cc1ccccc1)N1CCCCC1 (racemic) [Benproperine phosphate, (RS)-1-[2-(2-benzylphenoxy)-1-methylethyl]piperidine]",4510 nM
9,"Cc1cc(Nc2ccccc2)nc(Nc2ccc(NC(=O)C(C)C)cc2)n1 [Compound G869-0098, N-(4-((4-methyl-6-(phenylamino)pyrimidin-2-yl)amino)phenyl)isobutyramide]",3100 nM
10,"COc1ccc(Nc2cc(C)nc(Nc3ccc(NC(=O)c4c(F)cccc4Cl)cc3)n2)cc1 [Compound G869-0304, 2-chloro-6-fluoro-N-(4-((4-((4-methoxyphenyl)amino)-6-methylpyrimidin-2-yl)amino)phenyl)benzamide]",7170 nM
11,"CCCC(=O)Nc1ccc(Nc2nc(C)cc(Nc3ccccc3)n2)cc1 [Compound G869-0097, N-(4-((4-methyl-6-(phenylamino)pyrimidin-2-yl)amino)phenyl)butyramide]",6050 nM
12,"CCC(CC)c1nc(Nc2ccc(C(=O)OC)cc2)c2ccccc2n1 [ST029812, methyl 4-{[2-(ethylpropyl)quinazolin-4-yl]amino}benzoate]",8930 nM
13,"Cc1cc(N2CCCC2)nc(Nc2ccc(NC(=O)Cc3ccccc3)cc2)n1 [Compound G869-0499, N-(4-((4-methyl-6-(pyrrolidin-1-yl)pyrimidin-2-yl)amino)phenyl)-2-phenylacetamide]",9230 nM
14,"Cc1cc(N2CCCC2)nc(Nc2ccc(NC(=O)c3ccccc3Br)cc2)n1 [Compound G869-0472, 2-bromo-N-(4-((4-methyl-6-(pyrrolidin-1-yl)pyrimidin-2-yl)amino)phenyl)benzamide]",19400 nM
15,"Cc1ccc(N(CC2=NCCN2)c2cccc(O)c2)cc1 [Phentolamine HCl, 2-[N-(3-Hydroxyphenyl)-p-toluidinomethyl]-2-imidazolidine hydrochloride]",9030 nM
16,"COc1ccc(Nc2cc(C)nc(Nc3ccc(NC(C)=O)cc3)n2)cc1 [Compound G869-0268, N-(4-((4-((4-methoxyphenyl)amino)-6-methylpyrimidin-2-yl)amino)phenyl)acetamide]",13200 nM
17,"CCC(=O)Nc1ccc(Nc2nc(C)cc(Nc3ccccc3)n2)cc1 [Compound G869-0096, N-(4-((4-methyl-6-(phenylamino)pyrimidin-2-yl)amino)phenyl)propionamide]",4740 nM
18,"Cc1cc(Nc2ccccc2)nc(Nc2ccc(NC(=O)c3ccccc3Cl)cc2)n1 [Compound G869-0127, 2-chloro-N-(4-((4-methyl-6-(phenylamino)pyrimidin-2-yl)amino)phenyl)benzamide]",7510 nM
19,"OCCN1CCN(c2nc(Nc3cccc(F)c3)c3cnn(-c4ccccc4)c3n2)CC1 [Compound G932-0674, 2-(4-(4-((3-fluorophenyl)amino)-1-phenyl-1H-pyrazolo[3,4-d]pyrimidin-6-yl)piperazin-1-yl)ethanol]",1480 nM
20,"CN1CCN(c2nc(Nc3ccc(F)cc3)c3cnn(-c4ccccc4)c3n2)CC1 [Compound G932-0329, N-(4-fluorophenyl)-6-(4-methylpiperazin-1-yl)-1-phenyl-1H-pyrazolo[3,4-d]pyrimidin-4-amine]",2500 nM
21,"Cc1cc(Nc2ccccc2)nc(Nc2ccc(NC(=O)C(C)(C)C)cc2)n1 [Compound G869-0100, N-(4-((4-methyl-6-(phenylamino)pyrimidin-2-yl)amino)phenyl)pivalamide]",2080 nM
22,"CCN1CCN(c2nc(Nc3ccc(F)cc3)c3cnn(-c4ccccc4)c3n2)CC1 [Compound G932-0345, 6-(4-ethylpiperazin-1-yl)-N-(4-fluorophenyl)-1-phenyl-1H-pyrazolo[3,4-d]pyrimidin-4-amin]",4540 nM
23,"OCCN1CCN(c2nc(Nc3ccccc3)c3cnn(-c4ccccc4)c3n2)CC1 [Compound G932-0232, 2-(4-(1-phenyl-4-(phenylamino)-1H-pyrazolo[3,4-d]pyrimidin-6-yl)piperazin-1-yl)ethanol]",1170 nM
24,"CN1CCN(c2nc(Nc3cccc(F)c3)c3cnn(-c4ccccc4)c3n2)CC1 [Compound G932-0671, N-(3-fluorophenyl)-6-(4-methylpiperazin-1-yl)-1-phenyl-1H-pyrazolo[3,4-d]pyrimidin-4-amine]",585 nM
25,"O=C1[C@H]2CCCC[C@H]2C(=O)N1CCCCN1CCN(c2nsc3ccccc23)CC1 [Peropirone Hcl, (3aR,7aS)-2-{4-[4-(1,2-benzisothiazol-3-yl)piperazin-1-yl]butyl}hexahydro-1H-isoindole-1,3(2H)-dione]",186 nM
26,"CCCCC(=O)Nc1ccc(Nc2nc(C)cc(Nc3ccccc3)n2)cc1 [Compound G869-0099, N-(4-((4-methyl-6-(phenylamino)pyrimidin-2-yl)amino)phenyl)pentanamide]",5950 nM
